Patent publication US10696951B2, “Method for culturing pluripotent stem cells” (JTEC Corporation, priority 2014, dated 2020)

System: 253G1 cells
Assay: Rotary culture of 253G1 cells with RWV bioreactor in 10 mL vessel: spheroid formation and proliferation rate
Format: cell-based, human
Conditions: for Proliferation rate: 5 days, detached with 5 mM EDTA and TrypLE Select
Experimental: To perform three-dimensional culture, 253G1 cells to be seeded were detached into small spheroids (loose cell masses each having a diameter of approximately 50 μm to 200 μm) each consisting of 20 to 40 cells with 5 mM EDTA. The detached 4.9×10^5 253G cells (small spheroids obtained through chemical disrupting) were seeded in an mTeSR1 medium (10 mL) containing the ROCK (Rho-associated kinase) inhibitor Y27632 (Wako Pure Chemical Industries, Ltd., 10 μM) or an mTeSR1 medium (10 mL) free of the ROCK inhibitor Y27632 in a 10 mL RWV vessel (diameter: 5 cm; Synthecon, Incorporated), and rotary-cultured with an RWV bioreactor (Synthecon, Incorporated) at 37° C. and 8 rpm for 3 days. After culturing, a photograph of a phase contrast image of spherical spheroids produced in the culture medium was taken with the inverted microscope Axio Observer (Carl Zeiss) (FIG. 1). In addition, the diameter of each spherical spheroid was measured, and the size distribution was investigated (FIG. 2).
Subsequently, the spherical spheroids were collected, and disrupted by pipetting with a pipette to disperse the cells. The number of the cells was counted by using the automated cell counter, Countess™ (Invitrogen). From the total number of the cells in the culture medium, the proliferation rate relative to the number of the cells seeded (4.9×10^5 cells) was calculated (total number of cells/4.9×10^5 cells).
To determine a more suitable ROCK inhibitor concentration, 253G1 cells were rotary-cultured for 3 days under the same conditions as in the above except that three ROCK inhibitor concentrations (3 μM, 10 μM, or 30 μM) were used. After culturing, the number of spherical spheroids formed was 10 in the case of 3 μM, 50 in the case of 10 μM, and 20 in the case of 30 μM.
To determine a more suitable number of cells to be seeded, 253G1 cells detached into small spheroids each consisting of approximately 20 to 40 cells with 5 mM EDTA and TrypLE™ Select were seeded at 4.27×10^5, 8.55×10^5, or 1.28×10^6 cells in a 10 mL RWV vessel, and rotary-cultured for 5 days in an mTeSR1 medium containing or free of the ROCK inhibitor Y27632 (10 μM) by the same method as in the above (1). After culturing, the number of the cells was counted and the proliferation rate was calculated in the same manner as in the above.
Further, the 253G1 cells detached into small spheroids each consisting of approximately 20 to 40 cells with only 5 mM EDTA were seeded in a 10 mL RWV vessel at a number of cells seeded in the above preferred range, and rotary-cultured in a 10 μM ROCK inhibitor Y27632-containing mTeSR1 medium (10 mL) for 3 days.

[1] = 10 μM in mTeSR1, 4.9×10^5 cells seeded, 10 mL RWV vessel, 8 rpm, 3 days, detached with 5 mM EDTA
[2] = 1st run, 10 μM, 4.9 × 10^5 cells seeded, 10 mL vessel, 3 days, only 5 mM EDTA
[3] = 2nd run, 10 μM, 4.1 × 10^5 cells seeded, 10 mL vessel, 3 days, only 5 mM EDTA

C[C@@H](N)[C@H]1CC[C@H](C(=O)Nc2ccncc2)CC1.Cl.Cl.O (relative stereo) [Y27632, (R)-(+)-trans-N-(4-pyridyl)-4-(1-aminoethyl)-cyclohexanecarboxamide.2HClH2O]
Number of spherical spheroids formed (3 μM, 10 mL vessel, 3 days): 10
Proliferation rate (total number of cells / cells seeded) [1]: 6.5 fold
Total number of cells [1]: 3.1 × 10^6 cells
Total number of cells (10 μM in mTeSR1, 4.9×10^5 cells seeded, 10 mL RWV vessel, 8 rpm, 3 days, detached with 5 mM EDTA, listed as ROCK inhibitor): 3.1×10^6 cells
Proliferation rate (10 μM, 1.28 × 10^6 cells seeded/10 mL vessel): 1.43-fold
Proliferation rate (10 μM, 4.27 × 10^5 cells seeded/10 mL vessel): 4.78-fold
Formation of spherical spheroids (10 μM, 4.9×10^5 cells seeded, 10 mL vessel, 3 days, inhibitor-free medium gave no spheroids): numerous spherical spheroids were formed
Proliferation rate (10 μM, 8.55 × 10^5 cells seeded/10 mL vessel): 1.93-fold
Number of spherical spheroids formed (10 μM, 10 mL vessel, 3 days): 50
Proliferation rate versus ROCK inhibitor-free medium (10 μM, 10 mL vessel, experiment repeated a plurality of times): significantly increased
Number of spherical spheroids formed (30 μM, 10 mL vessel, 3 days): 20
Number of only cells of spheroids [2]: 2.4 × 10^6 cells
Number of spheroids [2]: approximately 130 spheroids
Proliferation rate of only cells of spheroids [2]: 4.9 fold
Number of only cells of spheroids [3]: 1.4 × 10^6 cells
Number of spheroids [3]: approximately 100 spheroids
Proliferation rate (total number of cells) [3]: 5.85 fold
Proliferation rate of only cells of spheroids [3]: 3.41 fold
Total number of cells [3]: 2.4 × 10^6 cells
